Data published in patent US20110183978A1, “Phenylpyri(mi)dinylazoles” (Bayer CropScience AG, priority 2009, published 2011).
Like-named read-outs stand apart in the source and are kept apart here.

Assays:
[1] = physchem
[2] = tested on: Peronospora parasitica; test: Example A: in vivo test on Peronospora parasitica (downy mildew on white cabbage); details: Hyaloperonospora parasitica, 120 h, cabbage plants sprayed 24 hours before inoculation, scored after 5 days, read-out: % Wirkungsgrad
Protocol: In Vivo Test on Peronospora Parasitica (Downy Mildew on White Cabbage) An aqueous suspension of the active substance was prepared by homogenization of a mixture of acetone/Tween (dispersant)/dimethyl sulphoxide (DMSO) and subsequent dilution with water to the desired concentration. Cabbage plants (variety: Eminence) are sown in cultivation dishes on a peat-pozzolanic earth substrate (50/50) at 18-20° C. and sprayed at the cotyledon stage with the aqueous suspension described above. As a control, plants are sprayed with an aqueous solution with no active substance. After 24 hours, the plants are inoculated by spraying with an aqueous suspension of Peronospora parasitica spores (50,000 spores per ml). The spores are derived from infected plants. The inoculated cabbage plants are incubated for 5 days at ca. 20° C. in a moist atmosphere. After 5 days, they are scored in comparison with the control plants.

[3] = tested on: Sphaerotheca fuliginea; test: Example D: in vivo test on Sphaerotheca fuliginea (powdery mildew on cucumber); details: Podosphaera fuliginea, 288 h, cucumber plants sprayed 24 hours before inoculation, scored after 12 days, read-out: % Wirkungsgrad
Protocol: In Vivo Test on Sphaerotheca Fuliginea (Powdery Mildew on Cucumber) An aqueous suspension of the active substance was prepared by homogenization of a mixture of acetone/Tween/dimethyl sulphoxide and subsequent dilution with water to the desired concentration. Cucumber plants (variety: Vert petit de Paris) are sown in cultivation dishes on a peat-pozzolanic earth substrate (50/50) at 20/23° C. and at the cotyledon stage Z10 sprayed with the aqueous suspension described above. As a control, plants are sprayed with an aqueous solution with no active substance. After 24 hours the plants are inoculated by spraying with an aqueous suspension of Sphaerotheca fuliginea spores (100,000 spores per ml). The spores are derived from a contaminated plant. The inoculated cucumber plants are incubated at ca. 20/25° C. at a relative atmospheric humidity of 60/70%. After 12 days they are scored in comparison with the control plants.

[4] = tested on: Fusarium proliferatum; test: Example I: production of fumonisin FB1 by Fusarium proliferatum (microtitre plates); assay type: cell-based; details: 120 h
[5] = tested on: Alternaria solani; test: Example M: in vivo test on Alternaria solani (leaf blotch disease/tomato/protective); details: 168 h, tomato, protective, 500 ppm active substance, assessed 7 days after inoculation, read-out: % Wirkungsgrad (activity level)
Method in brief: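 Protective test: young tomato plants sprayed with active substance (in DMF with alkylaryl polyglycol ether emulsifier, diluted in water) at the stated dosage, then inoculated with Alternaria solani. Disease assessed 7 days after inoculation.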

[6] = tested on: Sphaerotheca fuliginea; test: Example L: in vivo test on Sphaerotheca fuliginea (powdery mildew on cucumber/protective); details: Podosphaera fuliginea, 168 h, cucumber, protective, assessment 7 days after inoculation, read-out: % Wirkungsgrad
Method in brief: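 Young cucumber plants sprayed at stated dosage with compound in DMF/alkylaryl polyglycol ether emulsifier diluted in water; inoculated with S. fuliginea spores one day later. Kept in greenhouse at 70% relative humidity, 23° C; protective activity assessed 7 days after inoculation.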

[7] = tested on: Venturia inaequalis; test: Example O: in vivo test on Venturia inaequalis (apple scab/protective); details: 240 h, protective, assessment 10 days after inoculation, read-out: % Wirkungsgrad
Protocol: (§1) Emulsifier: 1 part by weight alkylaryl polyglycol ethers For the preparation of a suitable active substance preparation, 1 part by weight of active substance is mixed with the stated quantities of solvent and emulsifier and the concentrate is diluted to the desired concentration with water. For the testing for protective activity, young plants are sprayed with the active substance preparation at the stated application dosage. […] 10 days after the inoculation, the assessment takes place.

[8] = tested on: Fusarium graminearum; test: microbe, parasite or virus in culture; assay type: cell-based
[9] = tested on: Botrytis cinerea; test: Example P: in vivo test on Botrytis cinerea (gray mould on bean/protective); details: 48 h, bean, protective, 250 ppm active substance, assessed 2 days after inoculation, read-out: % Wirkungsgrad (activity level)
Protocol: as §1, with “dosage. After drying of the spray coating, 2 small pieces of agar with Botrytis cinerea growing on them are laid on every leaf.” for “dosage.”, “2” for “10”, “size of the infection blotches on the leaves is assessed.” for “assessment takes place.”

[10] = LogPA (logP of the stated pure compound or, in a mixture, of the main isomer, 1-substituted 3-aryl-1H-pyrazole)
[11] = Fusarium proliferatum growth, OD 620, 5 days, read-out: % Inhibition des Pilzwachstums bei 50 μM
[12] = Fusarium proliferatum, 5 days at 20° C., HPLC-MS/MS, read-out: % Inhibition der FB1 produktion bei 50 μM
[13] = 72 h, read-out: % Inhibition des Pilzwachstums bei 50 μM
[14] = 168 h, read-out: % Inhibition der DON/AcDON produktion bei 50 μM

Row | Structure (SMILES) | chromatographic logP [1, 10] | pest or weed control at 500 ppm [2] | pest or weed control at 500 ppm [3] | inhibition at 50 µM [4, 11] | inhibition at 50 µM [4, 12] | pest or weed control at 500 ppm [5] | pest or weed control at 500 ppm [6] | pest or weed control at 100 ppm [7] | inhibition at 50 µM [8, 13] | inhibition at 50 µM [8, 14] | pest or weed control at 250 ppm [9] | chromatographic logP ([1]; LogPA)
1 | CC(C)=CCn1ncc(-c2ccncc2)c1-c1c(F)cccc1F [Compound 22] | 1.72 | 97% | 71% | – | – | – | – | – | – | – | – | –
2 | COCC(=O)Nc1cc(-c2cn(C3CCCCO3)nc2-c2ccc(F)cc2)ccn1 (centres unmarked) [Compound 23] | 2.64 | 100% | – | 73% | 100% | – | – | – | – | – | – | –
3 | CC(C)(C)Cn1cc(-c2ccncc2)c(-c2c(F)cccc2F)n1 [Compound 11] | 1.84 | – | 93% | – | – | 80% | 73% | – | – | – | – | –
4 | CC(C)C(=O)Nc1cc(-c2cn(CCCl)nc2-c2ccc(F)cc2)ccn1 [Compound 222] | – | – | – | 96% | 100% | 90% | 100% | 95% | 99% | 82% | 85% | 2.33
5 | CC(C)n1cc(-c2ccnc(N)c2)c(-c2ccc(F)cc2)n1 [Compound 46] | 1.18 | 94% | 81% | – | – | – | – | – | – | – | – | –
6 | COC(=O)C(C)n1cc(-c2ccncc2)c(-c2ccc(F)cc2)n1 (centres unmarked) [Compound 107] | 1.2 | – | 91% | – | – | – | – | – | – | – | – | –
7 | Fc1ccc(-c2nn(C3CCCCO3)cc2-c2ccncc2)cc1 (centres unmarked) [Compound 9] | 1.29 | – | 75% | 40% | 96% | 89% | 90% | – | – | – | – | –
8 | CC(C)On1cc(-c2ccnc(NC(=O)C(C)C)c2)c(-c2ccc(F)cc2)n1 [Compound 272] | – | – | – | – | – | 94% | 94% | 89% | 33% | 99% | 100% | 3.01
9 | COCC(=O)Nc1cc(-c2cn(CCCl)nc2-c2ccc(F)cc2)ccn1 [Compound 220] | – | – | – | 99% | 100% | 95% | 97% | 96% | 100% | 99% | 100% | 2.36
10 | CC(C)n1cc(-c2ccnc(NC(=O)c3cccs3)c2)c(-c2ccc(F)cc2)n1 [Compound 206] | – | – | – | – | – | 90% | 94% | 83% | 75% | 99% | 100% | 3.14
11 | CCOC(=O)Nc1cc(-c2cn(C(C)CC)nc2-c2ccc(F)cc2)ccn1 (centres unmarked) [Compound 268] | – | – | – | – | – | 80% | 100% | 98% | 32% | 90% | 100% | 3.08
12 | Clc1cccc(-c2nn(C3CCCCO3)cc2-c2ccnc3[nH]ccc23)c1 (centres unmarked) [Compound 32] | 2.46 | 79% | – | – | – | – | – | – | – | – | – | –
13 | CC(C)(C)C(=O)Nc1cc(-c2cn(C3CCCCO3)nc2-c2ccc(F)cc2)ccn1 (centres unmarked) [Compound 41] | 3.19 | 72% | 98% | 56% | 100% | – | – | – | – | – | – | –
14 | COCCOCCn1cc(-c2ccncc2)c(-c2ccc(F)cc2)n1 [Compound 134] | 1.04 | 94% | 85% | – | – | 100% | – | – | – | – | – | –
15 | Fc1ccc(-c2nn(Cc3cccc(Oc4ccccc4)c3)cc2-c2ccncc2)cc1 [Compound 138] | 2.36 | – | 77% | – | – | – | – | – | – | – | – | –
16 | Fc1ccc(-c2nn(Cc3cnc(Cl)s3)cc2-c2ccncc2)cc1 [Compound 110] | 1.54 | – | 79% | – | – | – | – | – | – | – | – | –
17 | CCC(C)n1cc(-c2ccnc(NC(=O)COC)c2)c(-c2ccc(F)cc2)n1 (centres unmarked) [Compound 162] | 2.95 | – | – | – | – | 94% | 99% | 96% | 99% | 99% | 100% | –
18 | CC(C)n1cc(-c2ccnc(NC(=O)C(O)CO)c2)c(-c2ccc(F)cc2)n1 (centres unmarked) [Compound 210] | – | – | – | – | – | 80% | 100% | 78% | 85% | 100% | 98% | 1.76
19 | Cc1cc(F)ccc1-c1c(-c2ccncc2)cnn1C1CCCCO1 (centres unmarked) [Compound 37] | 1.4 | – | 78% | – | – | – | – | – | 13% | 80% | – | –
20 | COCCOCC(=O)Nc1cc(-c2cn(C(C)C)nc2-c2ccc(F)cc2)ccn1 [Compound 208] | – | – | – | – | – | 80% | 100% | 78% | 101% | 100% | 100% | 2.62
21 | CC(C)Cn1cc(-c2ccnc(NC(=O)C(C)C)n2)c(-c2ccc(F)cc2)n1 [Compound 189] | – | – | – | 0% | 90% | 95% | – | 84% | – | – | 93% | 2.92
22 | CCNC(=O)Nc1cc(-c2cn(C(C)C)nc2-c2ccc(F)cc2)ccn1 [Compound 211] | – | – | – | – | – | 70% | 93% | 92% | 16% | 99% | 100% | 2.02
23 | FC1(F)Oc2cccc(-c3c(-c4ccncc4)cnn3C3CCCCO3)c2O1 (centres unmarked) [Compound 33] | 1.64 | 93% | 71% | 99% | 99% | – | – | – | – | – | – | –
24 | CC(C)On1cc(-c2ccnc(NC(=O)C3CC3)c2)c(-c2ccc(F)cc2)n1 [Compound 271] | – | – | – | – | – | 89% | 79% | 81% | 71% | 99% | 93% | 2.73
25 | CC(C)n1cc(-c2ccnc(NC(=O)C3CCC3)c2)c(-c2ccc(F)cc2)n1 [Compound 156] | 2.57 | – | – | 93% | 100% | 94% | 94% | 91% | 99% | 81% | 98% | –
26 | Clc1cccc(-c2nn(C3CCCCO3)cc2-c2ccncc2)c1 (centres unmarked) [Compound 28] | 1.55 | 97% | – | – | – | – | – | – | – | – | – | –
